IC50 data for 30 compounds are collected here from patent publication US8461329B2, “Isoquinoline derivative” (Taisho Pharmaceutical Co., Ltd., priority 2008, dated 2013).

Where two headings read alike, the source gives them in different places.

For assay [1], the target named is T1, human CRTH2 expression cell KB8 (Homo sapiens, UniProt Q9Y5Y4).
T1 construct: host or cells: KB8 cells (human CRTH2 expression cell)
T1 sequence (Q9Y5Y4 1-395): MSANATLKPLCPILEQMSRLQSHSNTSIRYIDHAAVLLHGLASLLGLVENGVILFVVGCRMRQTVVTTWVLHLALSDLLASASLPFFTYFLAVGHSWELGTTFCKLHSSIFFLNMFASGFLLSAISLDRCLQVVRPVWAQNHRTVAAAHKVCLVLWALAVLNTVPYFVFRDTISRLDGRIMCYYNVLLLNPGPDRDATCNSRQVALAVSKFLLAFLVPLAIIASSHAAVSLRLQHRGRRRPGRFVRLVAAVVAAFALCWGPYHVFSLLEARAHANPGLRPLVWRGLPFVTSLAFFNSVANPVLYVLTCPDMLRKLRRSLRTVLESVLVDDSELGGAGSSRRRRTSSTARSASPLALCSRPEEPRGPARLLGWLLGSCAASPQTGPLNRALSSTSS
Briefly: CRTH2 binding test (3H-PGD2 binding to KB8 cells). The settings on record: 3H-PGD2 5 nM, 4° C., one hour. As for the experimental part:
CRTH2 binding inhibitory activity of the compound of the present invention was considered by using a binding test between human CRTH2 expression cell KB8 (BML, INC.) and ^3H-labeled prostaglandin D2 (hereinafter, abbreviated as ^3H-PGD2, manufactured by GE Healthcare).
KB8 was suspended in a reaction buffer solution (Hank's balanced salt solution (Invitrogen) containing 10 mM HEPES (Invitrogen)), which was dispensed in a 96 well plate (Coaster) so that 2×10^5 cells/well are placed. Furthermore, the compound of the present invention and ^3H-PGD2 (final concentration: 5 nM) were added, stirred, and incubated at 4° C.
One hour later, cells were collected on GF/C Filter Plate (PerkinElmer) that had been pre-coated with 0.5% polyethyleneimine solution (SIGMA) by using a Cell Harvester (Packard BioScience), and the radioactivity of the cells was measured by using Top count NXT (PerkinElmer) (a value measured herein was represented by a measurement value “a”). The same procedure was carried out in the absence of the compound, and a measurement value “b” was obtained; and the same procedure was carried out in the absence of the compound and in the presence of non-labeled PGD2 (final concentration: 50 μM), a measurement value “c” was obtained.
The binding inhibition rate of the compound was calculated by the following calculation formula: Bonding inhibitory rate(%)=[1−(a−c)/(b−c)]×100
That is to say, by using binding inhibition rates of compounds to be tested having various concentrations, the IC50 value was calculated according to a dose-dependent inhibition curve analyzed by using XLfit (IDBS) as a data analysis software, and the calculated value was defined as an indicator of the inhibitory activity. In Table 9, A denotes an inhibitory activity showing the IC50 value of less than 50 nM; B denotes an inhibitory activity showing the IC50 value of 50 nM or greater and less than 500 nM; C denotes an inhibitory activity showing the IC50 value of 500 nM or greater and less than 1000 nM; and D denotes an inhibitory activity showing the IC50 value of 1000 nM or greater.

For a further assay, the target named is T2, CRTH2 (KB8 cells) (Homo sapiens, UniProt Q9Y5Y4).
T2 construct: host or cells: KB8 cells (human CRTH2 expression cell)
T2 sequence (Q9Y5Y4 1-395): T1 sequence (Q9Y5Y4 1-395)
Briefly: CRTH2 antagonist test (PGD2-induced intracellular calcium ion concentration increase in KB8 cells). The class given is cell-based. The settings on record: PGD2 final concentration 100 nM, Fluo-4-AM fluorescence, read-out: antagonist activity (IC50 value, inhibition of calcium ion concentration increase). Summed up: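 Fluo-4-AM-loaded KB8 cells in HBSS with 10 mM HEPES and 1 mM CaCl2 received compound plus PGD2 (final 100 nM); peak fluorescence followed over time. Inhibition was computed against no-compound and unlabelled-PGD2 controls, and IC50 obtained from a dose-response curve.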
(Calcium flux is commonly read through the fluorescence of an indicator in the cells.)

[2] abbreviates: IC50 class, read-out: binding inhibitory activity.
Where [3] appears, read: read-out: CRTH2 binding inhibitory activity IC50 value.

For the compound `O=C(O)Cc1cnc(C(=O)c2ccc(NC(=O)c3cccc(Cl)c3)cc2)c2ccccc12` [Example 27], the IC50 (in assay [1] (setting [2]); at CRTH2 (KB8 cells)) was under 50 nM in each case.

Take `O=C(O)Cc1cnc(C(=O)c2ccc(NC(=O)C3CCC(c4ccc(Cl)cc4)CC3)cc2)c2ccccc12` (centres unmarked) [Example 82]: the values for the IC50 (in assay [1] (setting [2]); in assay [1] (setting [3]); on CRTH2 (KB8 cells)) were under 50 nM, 2.8 nM and under 50 nM, respectively.

Take `O=C(O)Cc1cnc(C(=O)c2ccc(NC(=O)c3ccc(F)c(Cl)c3)cc2)c2ccccc12` [Example 34]: the IC50 (in assay [1] (setting [2]); on CRTH2 (KB8 cells)) was under 50 nM throughout.

With `COc1ccc(CCNC(=O)c2ccc(C(=O)c3ncc(CC(=O)O)c4ccccc34)cc2)cc1` [Example 138], the IC50 (in assay [1] (setting [2]); at CRTH2 (KB8 cells)) was under 50 nM throughout.

With `O=C(O)Cc1cnc(C(=O)c2ccc(C(=O)NCCc3ccc(Cl)cc3)cc2)c2ccccc12` [Example 135, {1-[(4-{[2-(4-chlorophenyl)ethyl]carbamoyl}phenyl)carbonyl]isoquinolin-4-yl}acetic acid], the IC50 (in assay [1] (setting [2]); on CRTH2 (KB8 cells)) was under 50 nM in each case.

Turning to `O=C(O)Cc1cnc(C(=O)c2ccc(OCc3ccc(Cl)c(Cl)c3)cc2)c2ccccc12` [Example 134, [1-({4-[(3,4-dichlorobenzyl)oxy]phenyl}carbonyl)isoquinolin-4-yl]acetic acid], the results for the IC50 (in assay [1] (setting [2]); at CRTH2 (KB8 cells)) were under 50 nM and 50 to 500 nM, respectively.

Regarding `O=C(O)Cc1cnc(C(=O)c2ccc(NC(=O)/C=C/c3ccc(F)cc3)cc2)c2ccccc12` [Example 83], the IC50 (in assay [1] (setting [2]); on CRTH2 (KB8 cells)) was under 50 nM in each case.

As to `O=C(O)Cc1cnc(C(=O)c2ccc(NC(=O)c3cc4ccccc4[nH]3)cc2)c2ccccc12` [Example 18], the IC50 was under 50 nM in assay [1] (setting [2]), 3.5 nM in assay [1] (setting [3]) and under 50 nM at CRTH2 (KB8 cells).

Regarding `O=C(O)Cc1cnc(C(=O)c2ccc(NC(=O)Nc3ccc(Cl)c(Cl)c3)cc2)c2ccccc12` [Example 130, {1-[(4-{[(3,4-dichlorophenyl)carbamoyl]amino}phenyl)carbonyl]isoquinolin-4-yl}acetic acid], the IC50 (in assay [1] (setting [2]); at CRTH2 (KB8 cells)) was under 50 nM in each case.

For the compound `O=C(O)Cc1cnc(C(=O)c2ccc(OCCOc3ccc(Cl)cc3)cc2)c2ccccc12` [Example 143], the figures for the IC50 (in assay [1] (setting [2]); in assay [1] (setting [3]); at CRTH2 (KB8 cells)) were under 50 nM, 9.9 nM and 50 to 500 nM, respectively.

`O=C(O)Cc1cnc(C(=O)c2ccc(NC(=O)CCc3ccc(Cl)c(Cl)c3)cc2)c2ccccc12` [Example 4]: the IC50 (in assay [1] (setting [2]); at CRTH2 (KB8 cells)) was under 50 nM each time.

In the case of `CC(C)(C)OC(=O)Nc1ccc(C(=O)c2ncc(CC(=O)O)c3ccccc23)cc1` [Example 1, [1-({4-[(tert-butoxycarbonyl)amino]phenyl}carbonyl)isoquinolin-4-yl]acetic acid], the IC50 in assay [1] (setting [2]) is under 50 nM; on CRTH2 (KB8 cells) it was 50 to 500 nM.

With `N#Cc1ccc(C(=O)Nc2ccc(C(=O)c3ncc(CC(=O)O)c4ccccc34)cc2)cc1` [Example 13], the IC50 was under 50 nM in assay [1] (setting [2]) and at least 1000 nM at CRTH2 (KB8 cells).

`O=C(O)Cc1cnc(C(=O)c2ccc(NC(=O)c3ccc(-c4ccccc4)cc3)cc2)c2ccccc12` [Example 10]: the IC50 (in assay [1] (setting [2]); at CRTH2 (KB8 cells)) was under 50 nM each time.

For `O=C(O)Cc1cnc(C(=O)c2ccc(NC(=O)/C=C/c3ccc(Cl)c(Cl)c3)cc2)c2ccccc12` [Example 6], the IC50 (in assay [1] (setting [2]); on CRTH2 (KB8 cells)) was under 50 nM throughout.

On to `COc1ccc(C(=O)Nc2ccc(C(=O)c3ncc(CC(=O)O)c4ccccc34)cc2)cc1` [Example 7], for which the IC50 (in assay [1] (setting [2]); at CRTH2 (KB8 cells)) was under 50 nM throughout.

Turning to `O=C(O)Cc1cnc(C(=O)c2ccc(NC(=O)c3ccc([N+](=O)[O-])cc3)cc2)c2ccccc12` [Example 15], the IC50 (in assay [1] (setting [2]); at CRTH2 (KB8 cells)) was under 50 nM throughout.

For the compound `O=C(O)Cc1cnc(C(=O)c2ccc(NC(=O)OCc3ccc(Cl)c(Cl)c3)cc2)c2ccccc12` [Example 131, (1-{[4-({[(3,4-dichlorobenzyl)oxy]carbonyl}amino)phenyl]carbonyl}isoquinolin-4-yl)acetic acid], the IC50 (in assay [1] (setting [2]); at CRTH2 (KB8 cells)) was under 50 nM throughout.

Take `O=C(O)Cc1cnc(C(=O)c2ccc(NC(=O)c3ccc(OC(F)(F)F)cc3)cc2)c2ccccc12` [Example 8]: the IC50 (in assay [1] (setting [2]); at CRTH2 (KB8 cells)) was under 50 nM in each case.

With `O=C(O)Cc1cnc(C(=O)c2ccc(C(=O)NCCc3ccc(Cl)c(Cl)c3)cc2)c2ccccc12` [Example 137], the IC50 (in assay [1] (setting [2]); on CRTH2 (KB8 cells)) was under 50 nM in each case.

Consider `O=C(O)Cc1cnc(C(=O)c2ccc(NCc3ccc(Cl)c(Cl)c3)cc2)c2ccccc12` [Example 133, [1-({4-[(3,4-dichlorobenzyl)amino]phenyl}carbonyl)isoquinolin-4-yl]acetic acid], for which the IC50 (in assay [1] (setting [2]); at CRTH2 (KB8 cells)) was under 50 nM throughout.

`O=C(O)Cc1cnc(C(=O)c2ccc(NC(=O)NCc3ccc(Cl)c(Cl)c3)cc2)c2ccccc12` [Example 132, {1-[(4-{[(3,4-dichlorobenzyl)carbamoyl]amino}phenyl)carbonyl]isoquinolin-4-yl}acetic acid]: the IC50 is under 50 nM in assay [1] (setting [2]) and 50 to 500 nM on CRTH2 (KB8 cells).

As to `CN(C)c1ccc(C(=O)Nc2ccc(C(=O)c3ncc(CC(=O)O)c4ccccc34)cc2)cc1` [Example 12], the IC50 (in assay [1] (setting [2]); on CRTH2 (KB8 cells)) was under 50 nM each time.

Consider `O=C(O)Cc1cnc(C(=O)c2ccc(NC(=O)Cc3ccc(-c4ccccc4)cc3)cc2)c2ccccc12` [Example 22], for which the IC50 in assay [1] (setting [2]) was under 50 nM; at CRTH2 (KB8 cells) it was 50 to 500 nM.

On to `O=C(O)Cc1cnc(C(=O)c2ccc(NC(=O)c3ccc4ccccc4c3)cc2)c2ccccc12` [Example 14], for which the IC50 (in assay [1] (setting [2]); on CRTH2 (KB8 cells)) was under 50 nM each time.

Turning to `O=C(O)Cc1cnc(C(=O)c2ccc(NC(=O)c3ccc(Cl)c(Cl)c3)cc2)c2ccccc12` [Example 2, {1-[(4-{[(3,4-dichlorophenyl)carbonyl]amino}phenyl)carbonyl]isoquinolin-4-yl}acetic acid], the IC50 (in assay [1] (setting [2]); at CRTH2 (KB8 cells)) was under 50 nM throughout.

Turning to `O=C(O)Cc1cnc(C(=O)c2ccc(NC(=O)c3ccc(C(F)(F)F)cc3)cc2)c2ccccc12` [Example 11], the IC50 (in assay [1] (setting [2]); on CRTH2 (KB8 cells)) was under 50 nM each time.

In the case of `CCCCCc1ccc(C(=O)Nc2ccc(C(=O)c3ncc(CC(=O)O)c4ccccc34)cc2)cc1` [Example 57], the figures for the IC50 (in assay [1] (setting [2]); in assay [1] (setting [3]); on CRTH2 (KB8 cells)) were under 50 nM, 3.4 nM and under 50 nM, respectively.

Consider `O=C(O)Cc1cnc(C(=O)c2ccc(NC(=O)Cc3ccc(Cl)c(Cl)c3)cc2)c2ccccc12` [Example 3], for which the IC50 (in assay [1] (setting [2]); on CRTH2 (KB8 cells)) was under 50 nM throughout.

As for `O=C(O)Cc1cnc(C(=O)c2ccc(NC(=O)c3cccc(Br)c3)cc2)c2ccccc12` [Example 75], the IC50 in assay [1] (setting [2]) is under 50 nM; in assay [1] (setting [3]), 2.9 nM; on CRTH2 (KB8 cells), under 50 nM.
